From patent publication EP0238982B1, “Anticholinergic compounds, pharmaceutical compositions and method of treatment” (UNIVERSITY OF FLORIDA, priority 1986, dated 1987)
Read-outs that look alike come from different tables or passages of the source.

Experiments:
[1] = test system: carbachol-induced spasms of strips of ileum; experiment: Anticholinergic activity in vitro: inhibition of carbachol-induced spasms of guinea pig ileum strips; assay type: cell-based; conditions: for Kb: Cavia porcellus
Method: The anticholinergic activity of all the new compounds was investigated in vitro by studying the inhibitory action of the drugs on carbachol-induced spasms of strips of ileum from freshly killed guinea pigs. The terminal ileum from guinea pig (200-500 g) was cut into 2-3 cm strips and suspended in freshly prepared Tyrode's solution in 40 ml organ bath. The solution was aerated with 95% oxygen and 5% carbon dioxide at 37°C. A tension of 1 g was applied to the tissue, and cumulative-response curves recorded with carbachol until constant responses were obtained. A concentration of the antagonist was then added to the bath and after 10 seconds, further concentration response curves to carbachol were established. This procedure was then repeated using increasing concentrations of the antagonist. EC₅₀ was calculated for carbachol alone and for carbachol in the presence of the various antagonist concentrations. Atropine was used as standard for comparison. The PA₂ was calculated as follows: PA₂ = log ((A)/(a)-1) -log [antagonist] [formula] A = EC₅₀ or carbachol in presence of the antagonist a = EC₅₀ for carbachol alone before adding antagonist

[2] = Enzymatic hydrolytic cleavage rates in human plasma at 37°C (HPLC); assay type: in vitro ADME; set-up: half-life: dose or concentration left out as unconfirmed; conditions: for half-life: read-out: half lives (t 1/2) (converted)
Method: (§1) The chromatographic analysis was performed in a system consisting of LCD/Milton Roy Consta Metric III metering pump and LCD UV III Monitor Detector operated at 254 nm. A 30 cm x 3.9 mm (internal diameter) reverse phase ASI/U Bondpak C18 column operated at ambient temperature was used for the analysis. The mobile phase consisted of 32% acetonitrile in 0.01 M potassium dihydrogen phosphate, 0.004 M 1-octanesulfonic acid, sodium in 0.1% acetic acid at a flow rate of 2.3 ml/min.
Freshly collected plasma was used which contained about 80% plasma diluted with anticoagulant citrate phosphate dextrose solution, U.S.P.
A 100 µl volume of a freshly prepared solution of the compound in methanol was added to 10 ml plasma, previously equilibrated a 37°C in a water bath, and mixed thoroughly to result in an initial concentration of 6 x 10⁻³ mol. liter⁻¹. One ml samples of plasma were withdrawn from the test medium, mixed immediately with 3 ml ice cold acetonitrile, centrifuged and the supernatant analyzed by HPLC. The first order hydrolytic rate constant was determined by following the disappearance of the compound as function of time.

[3] = Hydrolytic rate constants in aqueous buffered solution at pH 12, 37°C (HPLC); assay type: physicochemical; conditions: for observed First Order Hydrolytic Rate Constants (k) K ± S.E: average of three runs ± S.E.M.
Method: A high pressure liquid chromatography (HPLC) method was used for the determination of rate of hydrolysis of the newly prepared tropanyl esters in aqueous buffered solution at pH 12.0 and in human plasma.
as §1
Sodium hydroxide and sodium dibasic phosphate were used to prepare the buffer at pH 12. The ionic strength was maintained at 0.1 M with sodium chloride.
One hundred microliters of a freshly prepared solution of the compound in methanol was added to 10 ml buffered solution, previously equilibrated to 37°C in a water bath and mixed thoroughly to make an initial concentration of 6 x 10⁻³ mol. liter⁻¹. Samples of 100 µl were injected into the column at various time intervals. […] A mobile phase of 40% acetonitrile was used to separate compounds 4 and 6 at a flow rate of 2.0 ml/min.
The previous method adapted for the hydrolysis of compounds 1, 2, 3 and 5 was used for the determination of rate of hydrolysis of compounds 4, 6 and 7. In case of compounds 4 and 6, the mobile phase is 40% acetonitrile, 0.01 M KH₂PO₄, 0.04M 1-octanesulfonic acid sodium salt and 0.1% HAC, at a flow rate 2 ml/min.

[4] = Enzymatic hydrolysis in rat liver homogenate at 37°C (HPLC); assay type: in vitro ADME, Sprague-Dawley rats; conditions: for Rates of hydrolysis in liver homogenate K ± S.E.: 20% rat liver homogenate; for half-life at 6000 µM / half-life: rat, liver homogenate
Method: The liver homogenate was prepared by the following method. Two Sprague-Dawley rats were killed by decapitation, and the livers were removed, weighed and homogenized in a tissue homogenizer in 0.11 M aqueous phosphate buffer, pH 7.4, to make 20% liver homogenate. The homogenate was centrifuged and the supernatant was used for the test. 100 l of 0.6 M solution of the ester in methanol was mixed with 10 ml of the homogenate, previously equilibrated to 37°C in a water bath, to result in an initial concentration of 6 x 10⁻³ mol/liter⁻¹. samples of 1.0 ml were withdrawn at time intervals from the medium, added immediately to 3 ml ice-cold acetonitrile, shaken vigorously, and placed in a freezer. When all samples had been collected, they were centrifuged, and each supernantant was analyzed by HPLC.

[5] = Hydrolysis of tertiary ethyl ester (2) and formation of its degradation product (7) at pH 12, 37°C (HPLC); assay type: physicochemical; set-up: dose or concentration left out as unconfirmed; conditions: 0.01 N NaOH pH at 37°C, read-out: t 1/2, hydrolysis (disappearance) of tertiary ethyl ester (2)
Method: The mobile phase used for the separation of compound (2) and its degradation product, the half ester (7) consisted of 32% MeCN, 0.01M KH₂PO₄, 0.004M 1-octanesulfonic acid sodium salt and 0.1% acetic acid. At flow rate of 1.5 ml/min (2) and (7) have retention times of 9 min and 4.6 min, respectively.
100 microliters of a freshly prepared solution of compound (2) in methanol was added to 10 ml buffered solution (pH 12), previously equilibrated to 37°C in a water bath to result in an initial concentration of 6 x 10⁻³ mol liter⁻¹. Samples of 1 ml were taken at time intervals and mixed with 3 ml of acetonitrile. 100 microliters of the collected samples were injected and disappearance of (2) and formation of (7) was followed by HPLC.

[6] = Hydrolysis of tropanyl hydrogen phenyl malonate (7) to the dibasic acid (8) at pH 12, 37°C (HPLC); assay type: physicochemical; conditions: 0.01 n naoh; 0.01 N sodium hydroxide, pH 12 at 37°C; read-out: t 1/2, hydrolysis (disappearance) of (7)
Method: The previously described method for the determination of rate of hydrolysis of compound (2) was followed for the determination of hydrolysis of compound (7).
The disappearance of compound (7) was followed by HPLC.
The concentration of the formed dibasic acid was determined by HPLC. 15% acetonitrile, 0.01M KH₂ PO₄ and 0.1% acetic acid was used as a mobile phase. At a flow rate of 2 ml/min, the product has a retention time of 4 min.
The collected samples after determination of rate of disappearance of compound (7) were used for the determination of rate of formation of the hydrolysis product (8). 100 microliters of the sample was injected and the formation of the product was followed by HPLC.

[7] = guinea pig ileum, against carbachol, average of two experiments (compounds 1 and 4: three), read-out: PA2 (converted)
[8] = method of Example 19, quaternary methiodide soft esters, read-out: PA2 QUATERNARY AMINE (converted)
[9] = 0.01 n naoh buffer, 0.01 N sodium hydroxide at pH 12.0, at 37°C, read-out: half-life (t 1/2)
[10] = aqueous buffer, aqueous solution pH 12, 37°C, average of three runs, read-out: t 1/2 (Min) AQUEOUS SOLN, pH 12, 37°C
[11] = pH 7.4, 20% rat liver homogenate, pH 7.4, 37°C, read-out: t 1/2 in liver homogenate
[12] = pH 7.4, rat liver homogenate, 37°C, average of three runs, read-out: t 1/2 (Min) RAT LIVER HOMOGENATE, 37°C
[13] = 0.01 m naoh buffer, 0.01 M sodium hydroxide at pH 12 and 37°C, read-out: half lives (t 1/2)
[14] = 0.01 N sodium hydroxide at pH 12.0, at 37°C

Row | SMILES | half-life ([2]; human plasma at 37°C) | Kb [1, 7] | half-life [3, 9] | half-life [3, 10] | Rates of hydrolysis in liver homogenate K ± S.E. ([4]; pH 7.4, 37°C) | kobsd HUMAN PLASMA, 37°C [2] | observed first order hydrolytic rate constants (K) ± S.E.M. [2] | half-life [3, 13] | half-life [4, 11] | half-life [4, 12] | observed First Order Hydrolytic Rate Constants (k) K ± S.E [3, 14] | other results
1 | CN1[C@@H]2CC[C@H]1C[C@@H](OC(=O)C(CO)c1ccccc1)C2 (some centres unmarked) [Atropine, reference compound] | – | – | – | – | – | – | – | – | – | – | – | PA2 [1]: 8.29; PA2 TERTIARY AMINE [1]: 8.29
2 | CCOC(=O)C(C(=O)OC1CC2CCC(C1)[N+]2(C)C)c1ccccc1 (racemic) [Compound 5, Ethyl (±)-α-(carboxy)-8-methyl-8-azabicyclo[3·2·1]oct-3-yl benzeneacetate methiodide] | 82.2 h | 13.8 nM | 0.85 min | 0.85 min | 10.5 ± 0.28 x 10^-2 min^-1 | – | – | – | – | – | – | observed first order hydrolytic rate constants (K) ± S.E.M. ([2]; human plasma at 37°C, compound 2 average of 4 runs, the rest 3 runs): 14.1 ± 0.6 x 10^-5 min^-1; Kb [1, 8]: 14.1 nM; half-life at 6000 µM [4, 11]: 6.6 min; half-life at 6000 µM [4, 12]: 6.6 min
3 | CN1C2CCC1CC(OC(=O)C(C(=O)OC1CCCCC1)c1ccccc1)C2 (racemic) [Compound 4, cyclohexyl (±)-α-(carboxy)-8-methyl-8-azabicyclo-[3.2.1]oct-3-yl-benzeneacetate] | 270 h | 257 nM | – | 182 min | 37.0 ± 0.3 x 10^-3 min^-1 | 4.44 ± 0.4 x 10^-5 min^-1 | 4.44 ± 0.4 x 10^-5 min^-1 | 182 min | 18.7 min | 18.7 min | – | –
4 | CC(C)OC(=O)C(C(=O)OC1CC2CCC(C1)N2C)c1ccccc1 (racemic) [Compound 3, isopropyl (±)-α-(carboxy)-8-methyl-8-azabicyclo[3·2·1]oct-3-yl-benzeneacetate] | 186 h | 28.2 nM | 22.8 min | 22.8 min | 97.2 ± 0.76 x 10^-3 min^-1 | 6.27 ± 0.3 x 10^-5 min^-1 | 6.27 ± 0.3 x 10^-5 min^-1 | – | 7.12 min | 7.12 min | 30 ± 0.77 x 10^-3 min^-1 | –
5 | C[N+]1(C)C2CCC1CC(OC(=O)C(C(=O)OC1CCCCC1)c1ccccc1)C2 (racemic) [Compound 6, Cyclohexyl (±)-α-(carboxy)-8-methyl-8-azabicyclo-[3·2·1]oct-3-yl benzeneacetate methiodide] | 183 h | 44.7 nM | – | 1.28 min | 10.4 ± 0.23 x 10^-3 min^-1 | 6.31 ± 0.8 x 10^-5 min^-1 | 6.31 ± 0.8 x 10^-5 min^-1 | 1.28 min | 66.8 min | 66.8 min | – | –
6 | COC(=O)C(C(=O)OC1CC2CCC(C1)N2C)c1ccccc1 (racemic) [Compound 1, Methyl (±)-α-(carboxy)-8-methyl-8-azabicyclo[3·2·1]oct-3-yl-benzeneacetate] | – | 282 nM | 4.8 min | 4.8 min | – | – | – | – | – | – | 1.43 ± 0.12 x 10^-1 min^-1 | –
7 | CC(C)OC(=O)C(C(=O)OC1CC2CCC(C1)[N+]2(C)C)c1ccccc1 (racemic) [VIc, isopropyl (±)-α-(carboxy)-8-methyl-8-azabicyclo[3·2·1]oct-3-yl-benzeneacetate methiodide] | – | – | – | – | – | – | – | – | – | – | – | Kb [1, 8]: 24.5 nM
8 | CCOC(=O)C(C(=O)OC1CC2CCC(C1)N2C)c1ccccc1 (racemic) [Compound 2, Ethyl (±)-α-(carboxy)-8-methyl-8-azabicyclo[3·2·1]oct-3-yl-benzeneacetate] | 77.4 h | 191 nM | 4.08 min | 4.08 min | 1.99 ± 0.996 x 10^-1 min^-1 | 15.0 ± 0.3 x 10^-5 min^-1 | 15.0 ± 0.3 x 10^-5 min^-1 | – | 3.48 min | 3.48 min | 16.9 ± 0.15 x 10^-2 min^-1 | half-life [5]: 4.19 ± 0.14 min
9 | CN1C2CCC1CC(OC(=O)C(C(=O)O)c1ccccc1)C2 (racemic) [Compound 7, (±)-α-(carboxy)-8-methyl-8-azabicyclo-[3·2·1]oct-3-yl benzeneacetic acid] | – | 631 nM | – | 350 min | – | – | – | 350 min | – | – | – | half-life [6]: 331 ± 4.31 min
